Results as given in the supplement of paper PMC10307832.

Assays:
Assay in all cases: relative viability (nuclei count vs DMSO), 5 days (fraction); higher = more cells survive
[1] = compound: CN(C/C=C/C1=CC=C(C=C1)Cl)CC2=CC=CC=C2N(CCO)S(=O)(=O)C3=CC=C(C=C3)OC [KN-93] + Cc1nc(NC(=O)N2CCC[C@H]2C(N)=O)sc1-c1ccnc(C(C)(C)C(F)(F)F)c1 [Alpelisib] (partner 2 µM)
Procedure, shortened: (§1)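 Medians of duplicate plates are given as relative viability. That measure is the nuclei count in treated wells divided by the count in vehicle wells. Counts were taken on 4× images of lung cancer cell lines in 1536-well plates, 5 days after pin-tool dosing the day after seeding with one drug alone or a fixed anchor-drug dose plus five library-drug doses (not always all listed) in √10 steps.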

[2] = compound: CN(C/C=C/C1=CC=C(C=C1)Cl)CC2=CC=CC=C2N(CCO)S(=O)(=O)C3=CC=C(C=C3)OC [KN-93] + CC(C)C[C@H](NC(=O)[C@H](Cc1ccccc1)NC(=O)c1cnccn1)B(O)O [Bortezomib] (partner 0.002 µM)
Procedure, shortened: as §1

[3] = compound: CN(C/C=C/C1=CC=C(C=C1)Cl)CC2=CC=CC=C2N(CCO)S(=O)(=O)C3=CC=C(C=C3)OC [KN-93] + CS(=O)(=O)N1CCN(Cc2cc3nc(-c4cccc5[nH]ncc45)nc(N4CCOCC4)c3s2)CC1 [Pictilisib] (partner 1 µM)
Procedure, shortened: as §1

[4] = compound: CN(C/C=C/C1=CC=C(C=C1)Cl)CC2=CC=CC=C2N(CCO)S(=O)(=O)C3=CC=C(C=C3)OC [KN-93] + C[C@@H](Oc1cc(-c2cnn(C3CCNCC3)c2)cnc1N)c1c(Cl)ccc(F)c1Cl [Crizotinib] (partner 1 µM)
Procedure, shortened: as §1

[5] = compound: CN(C/C=C/C1=CC=C(C=C1)Cl)CC2=CC=CC=C2N(CCO)S(=O)(=O)C3=CC=C(C=C3)OC [KN-93] + C[C@]1(O)C[C@@H](c2nc(-c3ccc4ccc(-c5ccccc5)nc4c3)c3c(N)nccn32)C1 [Linsitinib] (partner 1 µM)
Procedure, shortened: as §1

**Q.** With NCI-H1355 as the cell line, how does the relative viability ([1]; first compound 0.08 µM) read?
**A.** 0.731

**Q.** What about the relative viability ([1]; first compound 0.253 µM) of the same cell line?
**A.** 0.719

**Q.** And the relative viability ([1]; first compound 2.53 µM)?
**A.** 0.946

**Q.** And the relative viability ([1]; first compound 8 µM)?
**A.** 0.697

**Q.** And the relative viability ([2]; first compound 0.08 µM)?
**A.** 1.11

**Q.** What about the relative viability ([2]; first compound 0.253 µM) of the same cell line?
**A.** 1.11

**Q.** And the relative viability ([2]; first compound 2.53 µM)?
**A.** 1.3

**Q.** And the relative viability ([2]; first compound 8 µM)?
**A.** 0.895

**Q.** What about the relative viability ([3]; first compound 0.08 µM) of the same cell line?
**A.** 0.391

**Q.** And the relative viability ([3]; first compound 0.253 µM)?
**A.** 0.352

**Q.** What about the relative viability ([3]; first compound 2.53 µM) of the same cell line?
**A.** 0.389

**Q.** And the relative viability ([3]; first compound 8 µM)?
**A.** 0.295

**Q.** And the relative viability ([4]; first compound 0.08 µM)?
**A.** 0.915

**Q.** What about the relative viability ([4]; first compound 0.253 µM) of the same cell line?
**A.** 1.11

**Q.** And the relative viability ([4]; first compound 2.53 µM)?
**A.** 1.15

**Q.** And the relative viability ([4]; first compound 8 µM)?
**A.** 0.837

**Q.** And the relative viability ([5]; first compound 0.08 µM)?
**A.** 0.732

**Q.** What about the relative viability ([5]; first compound 0.253 µM) of the same cell line?
**A.** 0.769

**Q.** What about the relative viability ([5]; first compound 2.53 µM) of the same cell line?
**A.** 0.805

**Q.** And the relative viability ([5]; first compound 8 µM)?
**A.** 0.699

**Q.** What does the source list for NCI-H1437?
**A.** relative viability ([1]; first compound 0.08 µM): 0.876; relative viability ([1]; first compound 0.253 µM): 1.25; relative viability ([1]; first compound 2.53 µM): 0.88; relative viability ([1]; first compound 8 µM): 0.613; relative viability ([2]; first compound 0.08 µM): 0.465; relative viability ([2]; first compound 0.253 µM): 0.564; relative viability ([2]; first compound 2.53 µM): 0.53; relative viability ([2]; first compound 8 µM): 0.365; relative viability ([3]; first compound 0.08 µM): 0.416; relative viability ([3]; first compound 0.253 µM): 0.379; relative viability ([3]; first compound 2.53 µM): 0.394; relative viability ([3]; first compound 8 µM): 0.301; relative viability ([4]; first compound 0.08 µM): 0.851; relative viability ([4]; first compound 0.253 µM): 1.27; relative viability ([4]; first compound 2.53 µM): 0.894; relative viability ([4]; first compound 8 µM): 0.47; relative viability ([5]; first compound 0.08 µM): 0.879; relative viability ([5]; first compound 0.253 µM): 1.41; relative viability ([5]; first compound 2.53 µM): 1.04; relative viability ([5]; first compound 8 µM): 0.487

**Q.** NCI-H1651 was tested. Which relative viability ([1]; first compound 0.08 µM) did it give?
**A.** 1.05

**Q.** What about the relative viability ([1]; first compound 0.253 µM) of the same cell line?
**A.** 1.23

**Q.** And the relative viability ([1]; first compound 2.53 µM)?
**A.** 1.3

**Q.** What about the relative viability ([1]; first compound 8 µM) of the same cell line?
**A.** 0.624

**Q.** And the relative viability ([2]; first compound 0.08 µM)?
**A.** 0.976

**Q.** What about the relative viability ([2]; first compound 0.253 µM) of the same cell line?
**A.** 1.03

**Q.** What about the relative viability ([2]; first compound 2.53 µM) of the same cell line?
**A.** 0.987

**Q.** And the relative viability ([2]; first compound 8 µM)?
**A.** 0.805

**Q.** And the relative viability ([3]; first compound 0.08 µM)?
**A.** 0.45

**Q.** What about the relative viability ([3]; first compound 0.253 µM) of the same cell line?
**A.** 0.658

**Q.** And the relative viability ([3]; first compound 2.53 µM)?
**A.** 0.532

**Q.** And the relative viability ([3]; first compound 8 µM)?
**A.** 0.477

**Q.** What about the relative viability ([4]; first compound 0.08 µM) of the same cell line?
**A.** 0.846

**Q.** What about the relative viability ([4]; first compound 0.253 µM) of the same cell line?
**A.** 0.959

**Q.** And the relative viability ([4]; first compound 2.53 µM)?
**A.** 0.9

**Q.** What about the relative viability ([4]; first compound 8 µM) of the same cell line?
**A.** 0.732

**Q.** What about the relative viability ([5]; first compound 0.08 µM) of the same cell line?
**A.** 0.816

**Q.** And the relative viability ([5]; first compound 0.253 µM)?
**A.** 1.33

**Q.** And the relative viability ([5]; first compound 2.53 µM)?
**A.** 1.11

**Q.** And the relative viability ([5]; first compound 8 µM)?
**A.** 0.622

**Q.** What does the source list for NCI-H1666?
**A.** relative viability ([1]; first compound 0.08 µM): 0.974; relative viability ([1]; first compound 0.253 µM): 0.895; relative viability ([1]; first compound 2.53 µM): 1.22; relative viability ([1]; first compound 8 µM): 0.674; relative viability ([2]; first compound 0.08 µM): 0.753; relative viability ([2]; first compound 0.253 µM): 0.669; relative viability ([2]; first compound 2.53 µM): 0.945; relative viability ([2]; first compound 8 µM): 0.607; relative viability ([3]; first compound 0.08 µM): 0.56; relative viability ([3]; first compound 0.253 µM): 0.388; relative viability ([3]; first compound 2.53 µM): 0.489; relative viability ([3]; first compound 8 µM): 0.527; relative viability ([4]; first compound 0.08 µM): 0.939; relative viability ([4]; first compound 0.253 µM): 0.837; relative viability ([4]; first compound 2.53 µM): 0.998; relative viability ([4]; first compound 8 µM): 0.626; relative viability ([5]; first compound 0.08 µM): 0.837; relative viability ([5]; first compound 0.253 µM): 0.672; relative viability ([5]; first compound 2.53 µM): 1.11; relative viability ([5]; first compound 8 µM): 0.588
